# Where “and” joins values, the source holds several entries; their conditions need not be identical. Equal entries are not always repeated.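 Tested at 5 concentrations; 48 h exposure; 96-well plates; endpoints linearly interpolated, else capped at highest concentration. GI50 marks 50% less growth. TGI is the concentration that stops growth completely.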
# Columns and labels:
# Assay in all cases: inhibition of tumour cell growth, NCI panel, 48 h
# [1] = test system: SK-MEL-5 melanoma
# [2] = test system: SF-268 CNS
# [3] = test system: M14 melanoma
# [4] = test system: A549 NSCLC
# [5] = test system: MDA-MB-435
# [6] = test system: SK-OV-3 ovarian
# [7] = test system: UACC-257 melanoma
# [8] = test system: BT-549 breast
# [9] = test system: HOP-92 NSCLC
# [10] = test system: IGROV1 ovarian
SMILES,GI50 [1],TGI [1],GI50 [2],TGI [2],GI50 [3] [nM],TGI [3] [nM],GI50 [4],TGI [4],GI50 [5] [nM],TGI [5] [nM],GI50 [6],TGI [6],GI50 [7] [nM],TGI [7] [nM],GI50 [8] [nM],TGI [8] [nM],GI50 [9],TGI [9] [nM],GI50 [10],TGI [10] [nM]
Cc1cc(-c2cc(OC(=O)c3ccccc3)ccc2Cl)cc2nnc(Nc3ccc(OCCN4CCCC4)cc3)nc12,1520 nM,2890 nM,1880 nM,3750 nM,1640,3240,1720 nM,3290 nM,1620,3020,1580 nM,3090 nM,1620,3140,2670,6680,303 nM,1690,1760 nM,3780
COc1c(B(O)O)cccc1-c1nc2c(F)cc3n[nH]c(C)c3c2c2c1CCCC2,932 nM,2960 nM,666 nM,49300 nM,2280,8930,1130 nM,> 50000 nM,1860,> 50000,666 nM,4710 nM,2080,> 40800,238,3140,11.7 nM,2570,1120 nM,> 50000
O=C(CN1CCN(C(=O)c2ccco2)CC1)Nc1ccc(Cl)cc1C(=O)c1ccccc1Cl,5340 nM,18600 nM,14700 nM,43100 nM,12500,28100,5610 nM,39400 nM,5830,20600,16100 nM,76700 nM,12500,31800,2620,13100,4450 nM,24100,4230 nM,17600
Cc1c(Cl)c(C)c(Cl)c(O)c1Cl,–,35900 nM,–,> 100000 nM,–,49100,–,71900 nM,–,60700,–,> 100000 nM,–,87000,–,81700,–,58000,–,> 100000
CCc1ncc(CO)n1Cc1cccc2ccccc12,–,> 100000 nM,–,> 100000 nM,–,> 100000,–,> 100000 nM,–,> 100000,–,> 100000 nM,–,> 100000,–,> 100000,–,> 100000,–,> 100000
O=C(/C=C/C=C/c1ccc2c(c1)OCO2)N/N=C\c1ccc(O)cc1O,1630 nM,3870 nM,1730 nM,17100 nM,1670,11500,2930 nM,33800 nM,4350,19000,3430 nM,20900 nM,3060,15900,2250,7490,1980 nM,13500,2230 nM,14300
CCOc1ccc2c(c1)C(=O)c1c-2n(CCCN=[N+]=[N-])c(=O)c2cc([N+](=O)[O-])ccc12,1480 nM,4840 nM,1420 nM,38400 nM,3630,> 100000,10200 nM,> 100000 nM,39400,> 100000,5900 nM,36200 nM,96400,> 100000,13100,> 100000,7950 nM,46700,195 nM,16100
COc1ncc(-c2ccc3nccc(C#CCCCCC(=O)NO)c3c2)cc1NS(=O)(=O)c1ccc(F)cc1F,80.1 nM,1340 nM,121 nM,3770 nM,148,3620,104 nM,3170 nM,132,4830,35 nM,180 nM,198,1440,53.5,2770,15.6 nM,106,< 14.6 nM,559
CC1[C@@H]2CC=C3[C@H]4CCC5Cc6nc7c(nc6C[C@@]5(C)C4CC(=O)[C@]32CO[C@]12OC(C)(C)CC2O)CC1CC[C@@H]2C3=C[C@H]4O[C@@]5(O[C@@](C)(CO)C[C@@H]5O)C(C)[C@@]4(O)[C@]3(C)[C@@H](O)CC2[C@]1(C)C7 (stereo partly drawn),2.35 nM and 2.15 nM,22 nM and 146 nM,1.1 nM and 4.72 nM,253 nM and 441 nM,1.31,12.4,0.51 nM and 1.33 nM,164 nM and 470 nM,1.11,16.8,1.38 nM and 2.34 nM,23.9 nM and 73 nM,4.26,21.1,0.751,363,0.668 nM and 0.454 nM,–,3.99 nM and 5.2 nM,–
Cc1[nH]nc(C(=O)N/N=C/c2ccccc2Cl)c1N=NN(C)C,–,> 100000 nM,–,> 100000 nM,–,> 100000,–,> 100000 nM,–,> 100000,–,> 100000 nM,–,> 100000,–,12800,–,> 100000,–,> 100000
Cc1c(C(=O)c2ccccc2)[n+](=O)c2cc(F)c(F)cc2n1[O-],2030 nM,4240 nM,1930 nM,4120 nM,1810,3360,7260 nM,30900 nM,2200,5430,3700 nM,12900 nM,2490,6100,2040,4390,3720 nM,14700,1320 nM,5330
NC(=O)c1csc(-c2ccc(CO)o2)n1,–,> 100000 nM,–,> 100000 nM,–,> 100000,–,> 100000 nM,–,> 100000,–,> 100000 nM,–,> 100000,–,> 100000,–,> 100000,–,> 100000
C=CC(=O)N1CCC[C@@H](n2nc(-c3ccc(Oc4ccccc4)cc3)c3c(N)ncnc32)C1,> 10000 nM,> 10000 nM,> 4980 nM,> 10000 nM,> 7360,> 10000,> 10000 nM,> 10000 nM,> 10000,> 10000,28.5 nM,> 2420 nM,> 10000,> 10000,> 7690,> 10000,2670 nM,> 8690,418 nM,> 10000
CC[C@@H](C)/C=C(C)/C=C/C(=O)c1c(O)c(-c2ccc(O)cc2)cn(OC2CC(=O)CCC(C)OC(=O)CC2O)c1=O (stereo partly drawn),271 nM,978 nM,282 nM,9390 nM,258,2380,1740 nM,15600 nM,485,19000,463 nM,35600 nM,368,8870,554,16200,509 nM,18600,316 nM,4660
Cn1c(=O)c(Oc2ccc(F)cc2F)cc2cnc(NCC(C)(C)O)nc21,> 25000 nM,> 25000 nM,> 25000 nM,> 25000 nM,> 25000,> 25000,> 25000 nM,> 25000 nM,> 25000,> 25000,> 25000 nM,> 25000 nM,> 25000,> 25000,> 25000,> 25000,> 25000 nM,> 25000,> 25000 nM,> 25000
CC[C@@]1(O)C(=O)OCc2c1cc1n(c2=O)Cc2c-1nc1cc(F)c(C)c3c1c2[C@@H](NC(=O)CO)CC3,< 10.9 nM,119 nM,< 10 nM,1950 nM,< 10,95.7,50.3 nM,7510 nM,61.2,3050,17.3 nM,4960 nM,47,1020,< 11.8,730,< 12.5 nM,355,44.9 nM,1920
COC1C(=O)CCC2(CO2)C1(O)C1(C)OC1CC=C(C)C (stereo not drawn),–,83900 nM,–,> 100000 nM,–,53200,–,> 100000 nM,–,> 100000,–,> 100000 nM,–,> 100000,–,> 100000,–,> 100000,–,> 100000
Fc1ccc(Nc2nc3nonc3nc2Nc2ccc(I)cc2)cc1,147 nM,325 nM,367 nM,17900 nM,289,2860,313 nM,11200 nM,276,10800,269 nM,962 nM,207,756,266,2020,40 nM,326,217 nM,13300
CC#CC#C/C(=C/C=CC(=O)OC)SC,–,> 100000 nM,–,> 100000 nM,–,> 100000,–,> 100000 nM,–,> 100000,–,> 100000 nM,–,> 100000,–,> 100000,–,> 100000,–,> 100000
O=C(Nc1cccc(-n2cc(-c3ccncc3)c(-c3ccc(Cl)c(O)c3)n2)c1)Nc1ccc(Cl)c(Cl)c1,570 nM,1160 nM,1490 nM,10900 nM,1180,6970,1010 nM,> 32500 nM,1100,6050,1200 nM,> 32500 nM,930,3160,1700,16100,679 nM,1910,1770 nM,> 32500
COCCn1c2c([n+](Cc3cnccn3)c1C)C(=O)c1ccccc1C2=O,< 10 nM,16.2 nM,< 10 nM,< 10 nM,< 12.6,50.5,16.6 nM,43.4 nM,< 10,< 10,58.8 nM,573 nM,< 10,< 10,26.4,87.6,20.9 nM,54.9,< 10 nM,< 16.9

# Reference: PubChem BioAssay (NCI)
